# In patent publication US11479546B2, “Antimalarial hexahydropyrimidine analogues” (UCB Biopharma SRL, priority 2018, dated 2022):
# pIC50: −log10 of the molar value.
# Tested on: Plasmodium falciparum 3D7
# Test: P. falciparum 3D7 asexual blood stage assay, Assay Procedure Version 2 (SYBR green readout)
# Format: cell-based
# Settings: Plasmodium falciparum, 3D7, Erythrocyte, 72 h, Version 2 of the assay procedure (asterisk *); 72 h incubation in infected erythrocytes; 50,000 nM to 15 nM
# How it was run: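 P. falciparum 3D7 in A+ erythrocytes (5% haematocrit, 0.5% parasitaemia) exposed 72 h at 37 °C (1% O2, 3% CO2) to 20-point 1.5-fold titrations, final 50,000–15 nM in 0.5% DMSO. SYBR green in lysis buffer overnight, fluorescence 485/528 nm; % inhibition vs mefloquine and DMSO controls, EC50 from biphasic two-site fit.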
row,pIC50,Compound
1,6.33,"C[C@@]1(c2cccc(Nc3ccc(Cl)cn3)c2Cl)CC(=O)N(C2CCOCC2)C(=N)N1 [Example 182, (6S)-6-{2-Chloro-3-[(5-chloro-pyridin-2-yl)amino]phenyl}-2-imino-6-methyl-3-(tetrahydro-yran-4-yl)-hexahydropyrimidin-4-one]"
2,6.24,"C[C@@]1(c2cccc(Nc3ccc(C#N)cn3)c2Cl)CC(=O)N(C2CCOCC2)C(=N)N1 [Example 183, 6-{2-Chloro-3-[(4S)-2-imino-4-methyl-6-oxo-1-(tetrahydro-pyran-4-yl)hexahydropyrimidin-4-yl]anilino}pyridine-3-carbo-nitrile]"
3,6.66,"C[C@@]1(c2cccc(Nc3ncccc3C#N)c2Cl)CC(=O)N(C2CCOCC2)C(=N)N1 [Example 184, 2-{2-Chloro-3-[(4S)-2-imino-4-methyl-6-oxo-1-(tetrahydro-pyran-4-yl)hexahydropyrimidin-4-yl]anilino}pyridine-3-carbo-nitrile]"
4,6.25,"C[C@@]1(c2cccc(Nc3cnc4ccccn34)c2Cl)CC(=O)N(C2CCOCC2)C(=N)N1 [Example 185, (6S)-6-[2-Chloro-3-(imidazo-[1,2-a]pyridin-3-ylamino)-phenyl]-2-imino-6-methyl-3-(tetrahydropyran-4-yl)-hexahydropyrimidin-4-one]"
5,6.34,"Cc1nn(-c2ccccc2)c(C)c1Nc1cccc([C@]2(C)CC(=O)N(C3CCOCC3)C(=N)N2)c1Cl [Example 186, (6S)-6-{2-Chloro-3-[(3,5-dimethyl-1-phenylpyrazol-4-yl)-amino]phenyl}-2-imino-6-methyl-3-(tetrahydropyran-4-yl)hexahydropyrimidin-4-one]"
6,6.41,"C[C@@]1(c2cccc(Nc3ncc4ccccn34)c2Cl)CC(=O)N(C2CCOCC2)C(=N)N1 [Example 187, (6S)-6-[2-Chloro-3-(imidazo-[1,5-a]pyridin-3-ylamino)-phenyl]-2-imino-6-methyl-3-(tetrahydropyran-4-yl)-hexahydropyrimidin-4-one]"
7,6.27,"C[C@@]1(c2cccc(Nc3ccc(C4CC4)nn3)c2Cl)CC(=O)N(C2CCOCC2)C(=N)N1 [Example 197, (6S)-6-{2-Chloro-3-[(6-cyclo-propylpyridazin-3-yl)amino]-phenyl}-2-imino-6-methyl-3-(tetrahydropyran-4-yl)-hexahydropyrimidin-4-one]"

# Same assay, conditions: Version 2 of the assay procedure (asterisk *); 72 h incubation in infected erythrocytes; 50,000 nM to 15 nM
row,pIC50,Compound
1,6.20,"CC1(C#N)CC(N2C(=N)N[C@](C)(c3cccc(Nc4ccc(F)cc4)c3Cl)CC2=O)C1 [Example 180, 3-{(4S)-4-[2-Chloro-3-(4-fluoroanilino)phenyl]-2-imino-4-methyl-6-oxohexahydro-pyrimidin-1-yl}-1-methyl-cyclobutanecarbonitrile (trans isomer)]"
2,6.70,"CC1(C#N)CC(N2C(=N)N[C@](C)(c3cccc(Nc4ccc(F)cc4)c3Cl)CC2=O)C1 [Example 181, 3-{(4S)-4-[2-Chloro-3-(4-fluoroanilino)phenyl]-2-imino-4-methyl-6-oxohexahydro-pyrimidin-1-yl}-1-methyl-cyclobutanecarbonitrile (cis isomer)]"

# Tested on: Plasmodium falciparum 3D7
# Test: P. falciparum 3D7 asexual blood stage assay, Assay Procedure Version 1 (SYBR green readout)
# Format: cell-based
# Settings: 3D7, Erythrocyte, Version 1 of the assay procedure (no asterisk), 72 h incubation in infected erythrocytes, 10,000 nM to 0.51 nM
# Method: Asexual Blood Stage Assay
# The assay used to measure the effect of test compounds on a bloodstream stage of Plasmodium falciparum 3D7 strain employs SYBR green as the readout. This is a dye that binds to double stranded deoxyribonucleic acid (DNA) with a resulting increase in fluorescence, allowing detection of P. falciparum DNA in infected erythrocytes, and thereby providing a measure of parasite growth and propagation.
# P. falciparum Culture Maintenance
# Erythrocytes (A+blood) were prepared for both parasite culture and assay by washing 4 times with incomplete media (15.9 g RPMI 1640 (25 mM HEPES, L-glutamine), 1 g NaHCO3, 2 g glucose, 400 μL gentacin (500 mg/mL), 2 mL hypoxanthine solution (13.6 g/L in 0.1M NaOH pH 7.3) in 1 litre of media). The cells were centrifuged at 1800 g for 5 minutes, before decanting the supernatant and re-suspending in fresh incomplete media. On the final wash, the cells were re-suspended in complete media (incomplete media with 5 g/L AlbumaxII), and centrifuged at 1800 g for 3 minutes. This cell sediment was treated as 100% haematocrit.
# P. falciparum 3D7 was cultured in erythrocytes at 5% haematocrit in complete media at 37° C. (1% O2, 3% CO2, balance N2). Cultures were split on a weekly basis to achieve a 1% parasitaemia in erythrocites at 5% haematocrit in fresh media. Culture media is replaced by fresh media every other day (2 times during the week).
# Assay Procedure—Version 1
# On day 1, test compounds were added to assay plates using Echo dispensing technology (3 fold dilution and 10 points titration). 50 nL of each compound dilution was added to 50 μL of culture (5% haematocrit, 0.5% parasitaemia) and incubated for 72 h at 37° C. (1% O2, 3% CO2, balance N2). Final concentrations of test compounds ranged from 10,000 nM to 0.51 nM, in […].
# On day 4, 10 μL SYBR green (Invitrogen S7563 supplied as 10,000×concentrate in DMSO) pre-diluted to 3× concentrate with Lysis buffer (20 mM Tris pH 7.9, 5% EDTA, 0.16% w/v, 1.6% TX100 v/v) was added to the cultures and incubated in the dark, overnight, at room temperature.
# On day 5, fluorescent signal was measured using a BioTek plate reader (excitation 485 nm, emission 528 nm). All data were processed using IDBS ActivityBase. Raw data were converted into percent inhibition through linear regression by setting the high inhibition control as 100% and the no inhibition control as 0%. Quality control criteria for passing plates were as follows: Z′>0.5, S:B>3, % CV(no inhibition control)<15. The formula used to calculate Z′ is
# All EC50 curve fitting was undertaken using the following 4 parametric equation:
# [formula] where A=% inhibition at bottom; B=% inhibition at top; C=EC50; D=slope; x=inhibitor concentration; and y=% inhibition. […] Assay Procedure—Version 2
row,pIC50,Compound
1,5.46,"C[C@@]1(c2cccc(Nc3ccc(F)cc3)c2Cl)CC(=O)N([C@H]2C[C@@H]3CC[C@H]2O3)C(=N)N1 (racemic) [Example 188, (6S)-6-[2-Chloro-3-(4-fluoro-anilino)phenyl]-2-imino-6-methyl-3-[(1RS,2SR,4SR)-7-oxabicyclo[2.2.1]heptan-3-yl]-hexahydropyrimidin-4-one]"
2,6.92,"C[C@@]1(c2cccc(Nc3ccccc3)c2Cl)CC(=O)N([C@H]2CCOC2)C(=N)N1 (relative stereo) [Example 5, (6S)-6-(3-Anilino-2-chloro-phenyl)-2-imino-6-methyl-3-[(3S or 3R*)-tetrahydrofuran-3-yl]hexahydropyrimidin-4-one]"
3,7.15,"C[C@@]1(c2cccc(Nc3ccccc3)c2Cl)CC(=O)N([C@@H]2CCOC2)C(=N)N1 (relative stereo) [Example 6, (6S)-6-(3-Anilino-2-chloro-phenyl)-2-imino-6-methyl-3-[(3S or 3R*)-tetrahydrofuran-3-yl]hexahydropyrimidin-4-one]"
4,6.49,"C[C@@]1(c2cccc(Nc3ccc(F)cc3)c2Cl)CC(=O)N([C@@H]2CCOC2)C(=N)N1 (relative stereo) [Example 169, (6S)-6-[2-Chloro-3-(4-fluoro-anilino)phenyl]-2-imino-6-methyl-3-[(3R*)-tetrahydro-furan-3-yl]hexahydropyrimidin-4-one]"
5,5.59,"C[C@@]1(c2cccc(Nc3ccc(F)cc3)c2Cl)CC(=O)N([C@@H]2CCCOC2)C(=N)N1 (relative stereo) [Example 190, (6S)-6-[2-Chloro-3-(4-fluoro-anilino)phenyl]-2-imino-6-methyl-3-[(3R* or 3S)-tetrahydropyran-3-yl]-hexahydropyrimidin-4-one]"
6,7.51,"C[C@@H]1C[C@H](N2C(=N)N[C@](C)(c3cccc(Nc4cnc(C5CC5)nc4)c3Cl)CC2=O)CCO1 (relative stereo) [Example 204, (6S)-6-{2-Chloro-3-[(2-cyclo-propylpyrimidin-5-yl)amino]-phenyl}-2-imino-6-methyl-3-[(2R*,4R*)-2-methyltetrahydro-pyran-4-yl]hexahydropyrimidin-4-one]"
7,6.31,"C[C@@]1(c2cccc(Nc3ccc(F)cc3)c2Cl)CC(=O)N(CC2CCOCC2)C(=N)N1 (single isomer, unassigned) [Example 170, (6S*)-6-[2-Chloro-3-(4-fluoro-anilino)phenyl]-2-imino-6-methyl-3-(tetrahydropyran-4-ylmethyl)hexahydropyrimidin-4-one]"
8,6.09,"C[C@@]1(c2cccc(Nc3ccc(F)cc3)c2Cl)CC(=O)N(C2CCCOC2)C(=N)N1 (single isomer, unassigned) [Example 189, (6S)-6-[2-Chloro-3-(4-fluoro-anilino)phenyl]-2-imino-6-methyl-3-[(3S*)-tetrahydro-pyran-3-yl]hexahydropyrimidin-4-one]"
9,6.40,"C[C@@]1(c2cccc(Nc3ccccc3)c2Cl)CC(=O)N(CC2(O)CC2)C(=N)N1 [Example 1, (6S)-6-(3-Anilino-2-chloro-phenyl)-3-[(1-hydroxy-cyclopropyl)methyl]-2-imino-6-methylhexahydropyrimidin-4-one]"
10,6.82,"C[C@@]1(c2cccc(Nc3ccccc3)c2Cl)CC(=O)N(C2CCOCC2)C(=N)N1 [Example 2, (6S)-6-(3-Anilino-2-chloro-phenyl)-2-imino-6-methyl-3-(tetrahydropyran-4-yl)-hexahydropyrimidin-4-one]"
11,7.10,"C[C@@]1(c2cccc(Nc3ccccc3)c2Cl)CC(=O)N(CC2CCOCC2)C(=N)N1 [Example 3, (6S)-6-(3-Anilino-2-chloro-phenyl)-2-imino-6-methyl-3-(tetrahydropyran-4-ylmethyl)-hexahydropyrimidin-4-one]"
12,7.12,"C[C@@]1(c2cccc(Nc3ccccc3)c2Cl)CC(=O)N(C2CCCCC2)C(=N)N1 [Example 4, (6S)-6-(3-Anilino-2-chloro-phenyl)-3-cyclohexyl-2-imino-6-methylhexahydropyrimidin-4-one]"
13,6.48,"C[C@@]1(c2cccc(Nc3cccc(Cl)c3)c2Cl)CC(=O)N(C2CCOCC2)C(=N)N1 [Example 7, (6S)-6-[2-Chloro-3-(3-chloro-anilino)phenyl]-2-imino-6-methyl-3-(tetrahydropyran-4-yl)hexahydropyrimidin-4-one]"
14,6.48,"Cc1cccc(Nc2cccc([C@]3(C)CC(=O)N(C4CCOCC4)C(=N)N3)c2Cl)c1 [Example 8, (6S)-6-[2-Chloro-3-(3-methyl-anilino)phenyl]-2-imino-6-methyl-3-(tetrahydropyran-4-yl)hexahydropyrimidin-4-one]"
